Numbered stars: 1 amine (or outer) side, 2 acyl side, 3 side chain; on linkers, the order of the positions; unused ones are H or OH. Bridge positions count the residues as written; N and C are the ends. Square brackets hold non-standard residues; d marks the D form. Peptide text beside a SMILES is read from it. * marks the point of attachment. pTerphenylCO(4''-OnC5H11) = CCCCCOc1ccc(-c2ccc(-c3ccc(C(=O)*)cc3)cc2)cc1; Orn(4R-OH,5R-OH) = O=C([C@H](C[C@@H](O)[C@@H](O)N[*:3])N[*:1])[*:2]; hTyr(3S-OH,4S-OH) = N[C@H](C(=O)O)[C@H](O)[C@@H](O)c1ccc(O)cc1; Pro(3S-OH,4S-Me) = C[C@H]1CN[C@H](C(=O)O)[C@H]1O; Hyp = O=C(O)[C@@H]1C[C@@H](O)CN1

The nature of the series: Dissolution of anidulafungin powder in the polysorbate 80 solution. It counts as physicochemical. As for the experimental part:
Next the active ingredient is added. […] Even in small scale experiments the dissolution needs more than 4 hours. The dissolution can be accelerated by a pre-treatment of the active ingredient, preferably by dispersing the active ingredient in a pharmaceutically acceptable solvent, preferably in WFI, e.g. in an ultrasonic bath, and using this dispersion in step (b).
Dissolve the pre-weighed amount of polysorbate 80 in about 75% of total amount of WFI, rinse weighing container with 100 ml of WFI into reactor; stir not less than 20 min until excipient completely dissolves with a mechanical stirrer at a speed of 150-190 rpm.
Add about 7% of total amount of WFI to the pre-weighed amount of the active pharmaceutical ingredient (API) anidulafungin in glass bottle, screw the cap, shake bottle well in order to promote wetting of API and transfer it into ultrasonic bath for homogenisation. Take not less than 3 cycles of homogenisation for 10 min. Slightly shake the bottle after each cycle, in order to rinse API particles from the walls of the bottle's upper part into suspension. After white, well-homogenized suspension is obtained, transfer it into intermediate product preparation reactor, stir with a mechanical stirrer at a speed of 150-190 rpm until substance dissolves completely.
100% of the particles were below 750 µm. Particle sizes were analysed by laser diffraction with dry dispersion using a Malvern Mastersizer 3000 instrument. The size distribution was determined from the light scattering data using the theory of light scattering developed by Gustav Mie. […] It remained an undissolved residue of about 5% which corresponds to particles with more than about 400 µm. About 9-10% of the particles were bigger than 350 µm.
In a second experiment an aliquot of the anidulafungin powder was sieved through a 50 mesh sieve, corresponding to a mesh width of 297 µm to remove the bigger particles.

On to `CCCCCOc1ccc(-c2ccc(-c3ccc(C(=O)N[C@H]4C[C@@H](O)[C@@H](O)NC(=O)[C@@H]5[C@@H](O)[C@@H](C)CN5C(=O)[C@H]([C@@H](C)O)NC(=O)[C@H]([C@H](O)[C@@H](O)c5ccc(O)cc5)NC(=O)[C@@H]5C[C@@H](O)CN5C(=O)[C@H]([C@@H](C)O)NC4=O)cc3)cc2)cc1` [anidulafungin powder, anidulafungin] ({pTerphenylCO(4''-OnC5H11)}-[Orn(4R-OH,5R-OH)]T[Hyp][hTyr(3S-OH,4S-OH)]T[Pro(3S-OH,4S-Me)]; lactam 1-C), for which the “dissolution in the polysorbate 80 solution” value (after treatment of the powder in an ultrasonic bath) is reported as “complete dissolution could be achieved” and the “dissolution in the polysorbate 80 solution” value (vigorous stirring for 4 h, powder D90 339 µm, unsieved) was “could not be dissolved completely”. Besides, for the setting “particles with a particle size of more than 400 µm, small scale experiments, solubilizing agent added”, the “time needed for dissolution” value is given as “more than 4 hours”. In addition, the undissolved residue entry (polysorbate 80 solution, vigorous stirring for 4 h, powder D90 339 µm) is “about 5%”.

Turning to `CCCCCOc1ccc(-c2ccc(-c3ccc(C(=O)N[C@H]4C[C@@H](O)[C@@H](O)NC(=O)[C@@H]5[C@@H](O)[C@@H](C)CN5C(=O)[C@H]([C@@H](C)O)NC(=O)[C@H]([C@H](O)[C@@H](O)c5ccc(O)cc5)NC(=O)[C@@H]5C[C@@H](O)CN5C(=O)[C@H]([C@@H](C)O)NC4=O)cc3)cc2)cc1` [sieved powder, anidulafungin] ({pTerphenylCO(4''-OnC5H11)}-[Orn(4R-OH,5R-OH)]T[Hyp][hTyr(3S-OH,4S-OH)]T[Pro(3S-OH,4S-Me)]; lactam 1-C), the “dissolution in the polysorbate 80 solution” value (powder sieved through a 50 mesh sieve (297 µm), mechanical stirrer) is “could be dissolved easily”.

The values are drawn from patent EP3058958B1, “ANIDULAFUNGIN COMPOSITION” (Selectchemie AG, priority 2015, dated 2016).
